# pEC50: −log10 of the molar value.
# How the values were obtained:
# MDA-MB-231 = assay: Cytotoxicity of EP probes via CTG assay; format: cell-based, human; settings: 72 hr, read-out: MDA-MB231 EC50
# Method: (§1) For the CTG assay, 3 or 4 replicate assays were conducted for each experimental condition, and a minimum of 3 independent experiments were conducted for cellular assays. The mean luminescence of each experimental treatment group was normalized as a percentage of the mean intensity of untreated controls. EC50 values (μM) were calculated by Pipeline Pilot Software (Accelrys, Enterprise Platform, CA, USA). EC50 values (μM) from the viability assay were calculated from dose response curve-fitting via non-linear regression by using GraphPad Prism (Version 7.0 San Diego, CA).
# Propidium iodide assay = format: cell-based
# Method: Efforts to address the specific target in breast cancer cellular models are disclosed. Thus, in the present disclosure, the EP-chemical probes were generated to study subcellular co-localization in order to recover its potential mechanism in breast cancer cell models. An efficient synthetic approach to EP and its analogues from ergosterol was developed. The resultant EP compounds were evaluated for cytotoxicity/apoptosis via CellTiterGlo assay, and propidium iodide assay.
# HMEC = assay: Cytotoxicity of EP probes via CTG assay, normal cells; format: cell-based; settings: 72 hr
# Method: as §1
# [1] = system: MDA-MB-231, SUM-149, T47D; assay: Cytotoxicity of EP analogues via CTG assay, comparison across cell lines; settings: 72 hr
# Method: To better understand the structure-activity-relationship of EP, its core was modified at the C3 position of the steroid backbone. […] Both normal cell lines HMEC and BJ cells were also evaluated to determine therapeutic index.
# Either 1×10^3-4.8×10^3 or 4×10^2-1.2×10^3 cells were seeded to each well of 96- or 384-well white polystyrene flat-bottomed plates (3610 or 8804BC, Corning) in 100 μL or 30 μL media per well, respectively. The concentrations used were experimentally determined to ensure logarithmic growth during the duration of the experiment and prevent adverse effects on cell growth by DMSO exposure. The plates were incubated at 37° C. in 5% CO2 for 24 h before treatment. Stock solutions of test compounds (10 mM in DMSO) in nine 3-fold serial dilutions were dispensed via pintool (Biomek). The final concentration of DMSO was 0.3% (v/v) in each well. The plates were incubated for 72 h at 37° C. in 5% CO2 and then quenched with CellTiter-Glo® reagent (50 μL/well in 96-well plate, 30 μL/well in 384-well plate) at RT. The positive controls included staurosporine (10 μM), gambogic acid (10 μM), and a toxic quinoline generated in-house. Plates were then incubated at RT for 20 min and centrifuged at 1000 rpm for 1 min. The cytotoxicity assay was performed by using the CellTiterGlo Luminescent Cell Viability Assay kit (G7570, Promega, Madison, WI) according to the manufacturer's instructions. Luminescence was recorded in an Envision plate reader (Perkin Elmer).
# SUM-149 = assay: Cytotoxicity of EP probes via CTG assay; format: cell-based, human; settings: 72 hr, read-out: SUM149 EC50
# Method: as §1
# T47D = assay: Cytotoxicity of EP probes via CTG assay; format: cell-based; settings: 72 hr
# Method: as §1
# [2] = system: MCF-7 breast cancer cells; assay: Reactive oxygen species (ROS) measurement, CellROX; format: cell-based, human; settings: not statistically significant for the GLE compounds
# Method: Live-cell CellROX® assays for oxidative stress detection were conducted to evaluate whether GA-01, ergosterol, 5-6-dihydroergosterol and EP trigger intrinsic apoptosis pathways by inducing ROS. […] Menadione or t-Butyl hydrogen peroxide (TBHP) were positive controls (FIGS. 7 and S5) and co-treated with N-acetyl cysteine (NAC) to confirm that the signal was due to ROS formation induced by the compound. […] Furthermore, the possibility of the endoperoxide motif to react with NAC, was assessed EP was incubated with NAC in DMSO for 24 h at 37° C. […] Thus, the ability of EP to induce ROS could potentially be via a different mechanism from that of TBHP in MCF-7 cells.
# The mRuby-Mito-7 plasmid was obtained from Addgene (#55874 from Michael Davidson). A stable clone of MCF-7 was generated by using Fugene 6 (Roche) to transfect cells (2×10^5) with plasmid (2.0 μg) under neomycin selection. A stable cell line was selected by using G418 (300 μg/mL) for 2 weeks, sorted by flow cytometry, and maintained under G418 thereafter. Transfected MCF-7 cells were plated at a density of 2×10^4 cells/well in black 96-well clear bottom tissue culture plates and incubated overnight at 37° C. […] Fluorescence intensity was measured in a Clariostar® plate reader (BMG LABTECH, Cary, NC) at 535 nm.
smiles,measurement,setting,value
CC(C)C(C)C=CC(C)C1CCC2C1(C)CCC1C23C=CC2(CC(OC(=O)CCCCC4SCC5NC(=O)NC54)CCC12C)OO3 (stereo not shown) [3k],pEC50,MDA-MB-231,5.00
same,ability to induce apoptosis,Propidium iodide assay,validated via propidium iodide assay
same,pEC50,HMEC,< 4.85
same,cytotoxicity compared with parental compound 3 (in words),[1],comparable cytotoxicity to the parental compound 3
same,pEC50,SUM-149,5.40
same,pEC50,T47D,< 5.00
"CC(C)(C)OO [TBHP, t-Butyl hydroperoxide]",ROS formation reduction when co-treated with NAC,[2],~50%
Cc1cc(C)n2c1C=C1C=CC(CCC(=O)OC3CCC4(C)C5CCC6(C)C(C(C)C=CC(C)C(C)C)CCC6C56C=CC4(C3)OO6)=[N+]1[B-]2(F)F (stereo not shown) [3m],pEC50,MDA-MB-231,4.74
same,ability to induce apoptosis,Propidium iodide assay,validated via propidium iodide assay
same,pEC50,HMEC,< 4.82
same,cytotoxicity compared with parental compound 3 (in words),[1],comparable cytotoxicity to the parental compound 3
same,pEC50,SUM-149,5.70
same,pEC50,T47D,4.74

# Reference: patent publication US12263177B2, “Biologically active ganoderma lucidum compounds and synthesis of anticancer derivatives; ergosterol peroxide probes for cellular localization” (priority 2019, dated 2025)
